Assays:
[1] = target: 5-hydroxytryptamine receptor 2A (Homo sapiens, UniProt P28223)
Description: Binding affinity to 5HT2A receptor (unknown origin)

D(3) dopamine receptor = D(3) dopamine receptor (Homo sapiens, UniProt P35462)
Description: Binding affinity to dopamine D3 receptor (unknown origin)

D(2) dopamine receptor = D(2) dopamine receptor (Homo sapiens, UniProt P14416)
Description: Binding affinity to dopamine D2 receptor (unknown origin)

[2] = target: T1, 5-hydroxytryptamine receptor 2C (Homo sapiens, UniProt P28335)
T1 sequence (P28335 whole entry): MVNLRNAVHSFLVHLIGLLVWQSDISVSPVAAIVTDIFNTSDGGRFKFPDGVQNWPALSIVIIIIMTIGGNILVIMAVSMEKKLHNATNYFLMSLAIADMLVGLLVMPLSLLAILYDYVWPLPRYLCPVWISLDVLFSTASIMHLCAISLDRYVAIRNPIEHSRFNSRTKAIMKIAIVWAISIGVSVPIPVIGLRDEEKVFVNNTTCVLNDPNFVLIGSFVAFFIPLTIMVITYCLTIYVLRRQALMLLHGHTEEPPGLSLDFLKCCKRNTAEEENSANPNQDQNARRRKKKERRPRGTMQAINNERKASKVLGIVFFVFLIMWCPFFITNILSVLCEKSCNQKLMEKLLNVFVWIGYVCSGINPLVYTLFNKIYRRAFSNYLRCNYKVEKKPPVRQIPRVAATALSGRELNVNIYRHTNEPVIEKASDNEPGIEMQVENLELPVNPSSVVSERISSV
Description: Binding affinity to 5HT2C receptor (unknown origin)

[3] = target: T2, 5-hydroxytryptamine receptor 1A (Homo sapiens, UniProt P08908)
T2 sequence (P08908 whole entry): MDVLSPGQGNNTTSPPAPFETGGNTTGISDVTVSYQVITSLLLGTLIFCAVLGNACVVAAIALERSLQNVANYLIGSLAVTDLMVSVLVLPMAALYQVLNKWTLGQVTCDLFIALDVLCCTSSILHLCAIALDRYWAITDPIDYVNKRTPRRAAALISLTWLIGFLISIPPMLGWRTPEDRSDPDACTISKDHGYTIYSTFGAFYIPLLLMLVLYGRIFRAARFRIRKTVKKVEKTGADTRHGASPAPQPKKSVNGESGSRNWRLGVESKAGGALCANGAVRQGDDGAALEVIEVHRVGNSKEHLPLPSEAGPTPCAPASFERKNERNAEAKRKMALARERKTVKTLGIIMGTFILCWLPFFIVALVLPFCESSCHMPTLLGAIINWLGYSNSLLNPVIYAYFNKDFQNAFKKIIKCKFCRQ
Description: Binding affinity to 5HT1A receptor (unknown origin)

Mus musculus [4] = species: Mus musculus; conditions: in vivo, sc, 0.5 h
Description: Effect on spontaneous exploratory locomotor activity in sc dosed NMRI mouse measured for 30 mins with activity counts each 5 mins

Mus musculus [5] = species: Mus musculus; test: animal or person; conditions: NMRI, sc, read-out: MED
Description: Antipsychotic-like activity in sc dosed NMRI mouse assessed as reduction in PCP-induced locomotor activity dosed 15 to 30 mins before administration of methamphetamine measured for 60 mins

Mus musculus [6] = species: Mus musculus; test: animal or person; conditions: NMRI, sc; for minimal effective dose: read-out: MED
Description: Antipsychotic-like activity in sc dosed NMRI mouse assessed as reduction in methamphetamine-induced locomotor activity dosed 15 to 30 mins before administration of methamphetamine measured for 60 mins

Mus musculus [7] = test: Antipsychotic-like activity in sc dosed NMRI mouse assessed as reduction in MK801-induced locomotor activity dosed 15 to 30 mins before administration of MK801 measured for 60 mins; format: functional; conditions: read-out: MED
Mus musculus [8] = test: Antipsychotic-like activity in orally dosed NMRI mouse assessed as reduction in MK801-induced locomotor activity dosed 15 to 30 mins before administration of MK801 measured for 60 mins; format: functional; conditions: po, read-out: MED
Mus musculus [9] = test: Effect on spontaneous exploratory locomotor activity in orally dosed NMRI mouse measured for 30 mins with activity counts each 5 mins; format: ADME, organism-based; conditions: in vivo, po, 0.5 h
Mus musculus [10] = test: Toxicity in NMRI mouse assessed as induction of tremors at 30 mg/kg, sc dosed 30 mins before test; format: organism-based; parameters: dose 30 mg/kg, route subcutaneous; conditions: in vivo, 0.5 h

Sequence of D(2) dopamine receptor (P14416 whole entry): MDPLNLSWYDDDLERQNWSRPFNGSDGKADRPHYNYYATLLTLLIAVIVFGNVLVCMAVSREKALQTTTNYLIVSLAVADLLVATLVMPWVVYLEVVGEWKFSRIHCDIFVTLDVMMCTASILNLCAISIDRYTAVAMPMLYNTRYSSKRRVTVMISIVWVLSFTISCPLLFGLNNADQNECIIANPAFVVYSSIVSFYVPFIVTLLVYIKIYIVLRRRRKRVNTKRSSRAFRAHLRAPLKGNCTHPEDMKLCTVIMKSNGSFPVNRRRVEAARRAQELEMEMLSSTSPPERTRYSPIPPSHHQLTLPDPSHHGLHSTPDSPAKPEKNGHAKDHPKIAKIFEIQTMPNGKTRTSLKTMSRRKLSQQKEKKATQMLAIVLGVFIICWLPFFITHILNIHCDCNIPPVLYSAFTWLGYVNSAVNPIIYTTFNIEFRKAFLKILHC
Sequence of 5-hydroxytryptamine receptor 2A (P28223 whole entry): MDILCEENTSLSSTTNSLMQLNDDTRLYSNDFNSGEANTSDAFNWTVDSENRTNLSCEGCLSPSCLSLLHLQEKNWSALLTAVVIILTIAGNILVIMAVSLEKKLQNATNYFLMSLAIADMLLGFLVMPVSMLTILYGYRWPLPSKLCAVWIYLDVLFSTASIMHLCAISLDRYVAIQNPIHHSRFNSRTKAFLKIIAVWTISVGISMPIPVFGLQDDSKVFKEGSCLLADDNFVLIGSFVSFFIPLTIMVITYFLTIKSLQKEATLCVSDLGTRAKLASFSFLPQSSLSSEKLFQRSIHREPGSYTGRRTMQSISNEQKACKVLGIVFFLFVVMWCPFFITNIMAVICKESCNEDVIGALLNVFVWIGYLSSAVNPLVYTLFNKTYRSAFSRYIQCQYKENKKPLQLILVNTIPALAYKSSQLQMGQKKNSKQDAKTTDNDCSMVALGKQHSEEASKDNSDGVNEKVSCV
Sequence of D(3) dopamine receptor (P35462 whole entry): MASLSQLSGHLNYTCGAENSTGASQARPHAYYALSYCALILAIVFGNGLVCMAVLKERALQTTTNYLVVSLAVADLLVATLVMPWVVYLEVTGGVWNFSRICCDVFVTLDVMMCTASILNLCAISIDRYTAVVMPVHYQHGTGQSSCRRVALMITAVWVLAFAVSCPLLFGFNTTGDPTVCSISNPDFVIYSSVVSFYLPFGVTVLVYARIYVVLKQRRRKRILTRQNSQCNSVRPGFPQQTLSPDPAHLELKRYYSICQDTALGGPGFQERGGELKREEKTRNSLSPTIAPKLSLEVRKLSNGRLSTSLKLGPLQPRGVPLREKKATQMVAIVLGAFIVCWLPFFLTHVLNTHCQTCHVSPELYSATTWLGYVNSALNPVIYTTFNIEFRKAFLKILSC

| SMILES | Ki [1] [nM] | Ki (D(3) dopamine receptor) [nM] | Ki (D(2) dopamine receptor) [nM] | Ki [2] [nM] | Ki [3] [nM] | MED (Mus musculus [4]) [mg/kg] | MED (Mus musculus [9]) [mg/kg] | minimal effective dose (Mus musculus [5]) [mg/kg] | minimal effective dose (Mus musculus [6]) [mg/kg] | minimal effective dose (Mus musculus [7]) [mg/kg] | ED50 (Mus musculus [4]) [mg/kg] | ED50 (Mus musculus [6]) [mg/kg] | minimal effective dose (Mus musculus [8]) [mg/kg] | Activity (Mus musculus [10]) |
| --- | --- | --- | --- | --- | --- | --- | --- | --- | --- | --- | --- | --- | --- | --- |
| Cc1cccc(N2CCN(CCCCNC(=O)[C@@H]3CCc4ccccc4N3)CC2)c1 | 5.1 | 159 | > 1000 | 73.4 | 43 |  |  |  |  |  |  |  |  |  |
| O=C(NCCCCN1CCN(c2ccccc2)CC1)[C@@H]1CCc2ccccc2N1 | 22 | 45 | > 1000 | > 1000 | 85 |  |  |  |  |  |  |  |  |  |
| O=C(NCCCCN1CCN(c2cnc3ccccc3c2)CC1)c1ccccc1 | > 1000 | 40 | 1 | > 1000 | > 1000 |  |  |  |  |  |  |  |  |  |
| Cc1cccc(N2CCN(CCCCNC(=O)c3ccccn3)CC2)n1 | 240 | > 1000 | > 1000 | > 1000 | 3 |  |  |  |  |  |  |  |  |  |
| Cc1cccc(N2CCN(CCCCNC(=O)c3cc4ccccc4o3)CC2)n1 | 27 | 24 | > 1000 | 61 | 2 |  |  |  |  |  |  |  |  |  |
| O=C(NCCCCN1CCN(c2ccccc2)CC1)c1ccc2ccccc2n1 | 98 | 61 | > 1000 | 475 | 94 |  |  |  |  |  |  |  |  |  |
| COc1cccc(N2CCN(CCCCNC(=O)c3ccccc3)CC2)n1 | 110 | 55 | > 1000 | > 1000 | 6 | 10 |  | 10 | 0.3 | 3 |  |  |  |  |
| O=C(NCCCCN1CCN(c2ccccc2)CC1)c1cccnc1 | 216 | 62 | > 1000 | > 1000 | 85 |  |  |  |  |  |  |  |  |  |
| O=C(NCCCCN1CCN(c2ccccc2)CC1)[C@H]1CCc2ccccc2N1 | 50 | 73 | > 1000 | > 1000 | 9.9 |  |  |  |  |  |  |  |  |  |
| O=C(CCCN1CCC(O)(c2ccc(Cl)cc2)CC1)c1ccc(F)cc1 [HALOPERIDOL] |  |  |  |  |  |  |  |  |  |  | 0.08 | 0.09 |  |  |
| COc1cccc(N2CCN(CCCCNC(=O)c3ccccn3)CC2)n1 | 140 | 200 | > 1000 | 43 | 8 | > 3 |  | 3 | 3 |  |  |  |  |  |
| Cc1cccc(N2CCN(CCCCNC(=O)c3ccccc3)CC2)n1 | 83 | 73 | > 1000 | > 1000 | 3 | > 3 |  | > 3 | 1 |  |  |  |  |  |
| O=C(NCCCCN1CCN(c2ccccn2)CC1)c1cc2ccccc2cn1 | 822 | 41 | 5600 | 1350 | 16 |  |  |  |  |  |  |  |  |  |
| O=C(NCCCCN1CCN(c2ccc(O)cc2)CC1)c1cc2ccccc2cn1 | 17 | 24 | > 1000 | 400 | > 1000 |  |  |  |  |  |  |  |  |  |
| O=C(NCCCCN1CCN(c2ccccn2)CC1)c1ccc2ccccc2n1 | 69 | 186 | > 1000 | > 1000 | 24 |  |  |  |  |  |  |  |  |  |
| O=C(NCCCCN1CCN(c2cccc3ccccc23)CC1)c1ccccc1 | 3 | 0.9 | 58 | 6 | 0.7 |  |  |  |  |  |  |  |  |  |
| O=C(NCCCCN1CCN(c2cnc3ccccc3c2)CC1)c1cc2ccccc2cn1 | 1000 | 14 | > 1000 | 479 | > 1000 |  |  |  |  |  |  |  |  |  |
| O=C(NCCCCN1CCN(c2ncccn2)CC1)c1cc2ccccc2cn1 | 1230 | 204 | > 1000 | > 1000 | 67 |  |  |  |  |  |  |  |  |  |
| O=C(NCCCCN1CCN(Cc2ccccc2)CC1)c1cc2ccccc2o1 | > 1000 | 560 | > 1000 | > 1000 | > 1000 |  |  |  |  |  |  |  |  |  |
| Cc1cccc(N2CCN(CCCCNC(=O)c3cc4ccccc4o3)CC2)c1C | 3.6 | 0.4 | 85 | 17 | 4 |  |  |  |  | 30 |  |  |  | Toxic |
| O=C(NCCCCN1CCN(c2ccccc2F)CC1)c1cc2ccccc2o1 | 18 | 0.3 | 76 | 79 | 15 |  |  |  |  |  |  |  |  |  |
| Cc1cccc(N2CCN(CCCCNC(=O)[C@H]3CCc4ccccc4N3)CC2)c1 | 77 | 122 | 3410 | 450 | 117 |  |  |  |  |  |  |  |  |  |

More lines, main results first:

| Ki [1] [nM] | Ki (D(3) dopamine receptor) [nM] | Ki (D(2) dopamine receptor) [nM] | Ki [2] [nM] | Ki [3] [nM] | MED (Mus musculus [4]) [mg/kg] | MED (Mus musculus [9]) [mg/kg] | SMILES | minimal effective dose (Mus musculus [5]) [mg/kg] | minimal effective dose (Mus musculus [6]) [mg/kg] | minimal effective dose (Mus musculus [7]) [mg/kg] | ED50 (Mus musculus [4]) [mg/kg] | ED50 (Mus musculus [6]) [mg/kg] | minimal effective dose (Mus musculus [8]) [mg/kg] | Activity (Mus musculus [10]) |
| --- | --- | --- | --- | --- | --- | --- | --- | --- | --- | --- | --- | --- | --- | --- |
| 40 | 8.8 | > 1000 | 173 | 17 |  |  | COc1cccc(N2CCN(CCCCNC(=O)c3cc4ccccc4o3)CC2)c1 |  |  |  |  |  |  |  |
| 100 | 144 | > 1000 | > 1000 | 52 | 3 |  | O=C(NCCCCN1CCN(c2ccccc2)CC1)c1ccccn1 | > 3 | 1 |  |  |  |  |  |
| 15.3 |  |  | 206 | 11.9 |  |  | Cc1cccc(N2CCN(CCCCNC(=O)c3cc4ccccc4o3)CC2)c1 |  |  |  |  |  |  |  |
| 238 | 27 | > 1000 | > 1000 | 44 |  |  | COc1cccc(N2CCN(CCCCNC(=O)c3cccc(C)n3)CC2)c1 |  |  |  |  |  |  |  |
| 179 | 214 | > 1000 | > 1000 | 36 |  |  | COc1cccc(N2CCN(CCCCNC(=O)c3ccccn3)CC2)c1 |  |  |  |  |  |  |  |
| 40 | 12 | > 1000 | > 1000 | 26 | 10 |  | O=C(NCCCCN1CCN(c2ccccc2)CC1)c1cc2ccccc2cn1 | 3 | ≤ 1 | 3 |  |  |  |  |
| 164 | 40 | > 1000 | 602 | 59 |  |  | COc1cccc(N2CCN(CCCCNC(=O)c3c[nH]c4ccccc34)CC2)c1 |  |  |  |  |  |  |  |
| 70 | 31 | > 1000 | 155 | 26 |  |  | COc1cccc(N2CCN(CCCCNC(=O)c3ccc4ccccc4n3)CC2)c1 |  |  |  |  |  |  |  |
| 311 | 1.7 | 219 | 311 | 10 |  |  | COc1cccc(N2CCN(CCCCNC(=O)c3cc4ccccc4n3C)CC2)c1 |  |  |  |  |  |  |  |
| 11 | 3 | 160 | 230 | 11 |  |  | O=C(NCCCCN1CCN(c2cccc(F)c2)CC1)c1cc2ccccc2cn1 |  |  |  |  |  |  |  |
| 8 | 16 | > 1000 | 300 | 73 |  | 60 | O=C(NCCCCN1CCN(c2ccc(F)cc2)CC1)c1cc2ccccc2cn1 |  |  |  |  |  | 60 |  |
| 17 | 53 | > 1000 | 74 | 18 | 10 |  | Cc1cccc(N2CCN(CCCCNC(=O)c3ccc4ccccc4n3)CC2)c1 | > 10 | ≤ 1 | 10 |  |  |  | Toxic |
| 4 | 0.2 | 53 | 22 | 1.9 |  |  | O=C(NCCCCN1CCN(c2cccc(C(F)(F)F)c2)CC1)c1cc2ccccc2[nH]1 |  |  |  |  |  |  |  |
| 28 | 46 | > 1000 | 57 | 2 |  |  | Cc1cccc(N2CCN(CCCCNC(=O)c3cc4ccccc4cn3)CC2)n1 |  |  |  |  |  |  |  |
